From article PMC8270315, “Combination of Heme Oxygenase-1 Inhibition and Sigma Receptor Modulation for Anticancer Activity” (Molecules, 2021)
Read-outs that look alike come from different tables or passages of the source.

Key:
HO-1 = target: T1, HO-1 (Rattus norvegicus, UniProt P06762); test: HO-1 inhibition, bilirubin formation in rat spleen microsomal fraction; type: biochemical; settings: Table S1
T1 construct: selected in order to use the most native (i.e., closest to in vivo) forms of HO-1; from tissue; host or cells: spleen microsomal fraction of male Sprague-Dawley rats
T1 sequence (P06762 1-289): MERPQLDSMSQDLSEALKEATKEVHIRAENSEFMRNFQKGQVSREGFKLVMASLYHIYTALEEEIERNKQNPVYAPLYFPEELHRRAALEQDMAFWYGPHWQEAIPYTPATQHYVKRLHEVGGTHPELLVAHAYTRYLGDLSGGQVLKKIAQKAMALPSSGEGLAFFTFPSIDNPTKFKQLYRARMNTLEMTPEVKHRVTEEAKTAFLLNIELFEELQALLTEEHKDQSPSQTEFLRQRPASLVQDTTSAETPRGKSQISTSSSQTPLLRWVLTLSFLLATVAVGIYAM
Method: The new HO-1/σRs hybrids 1–4 were tested to evaluate their HO-1 inhibitory activity. The enzyme was obtained from the microsomal fractions of rat spleen. Determination of HO-1 activity was performed by measuring the bilirubin formation using the difference in absorbance at 464–530 nm, as reported in the experimental section. Compounds LS/0, LS4/28, LS6/42 and azalanstat were used as reference substances. We focused our attention on HO-1, since only this inducible isoform is involved in tumorigenesis and in tumor progression.
Microsomal fractions obtained from rat spleen were used as sources of HO-1. Microsomal preparations obtained by differential centrifugation, were selected in order to use the most native (i.e., closest to in vivo) forms of HO-1. The experiments reported in the present paper complied with current Italian law and met the guidelines of the Institutional Animal Care and Use Committee of Ministry of Health (Directorate General for Animal Health and Veterinary Medicines) (Italy). The experiments were performed in male Sprague–Dawley albino rats (150 g body weight and age 45 d). They had free access to water and were kept at room temperature with a natural photo-period (12 h light, 12 h dark cycle). For measuring HO-1 activities, each rat was sacrificed and their spleens were excised and weighed. A homogenate (15%, w/v) of spleens pooled from four rats was prepared in ice-cold HO-homogenizing buffer (50 mM Tris buffer, pH 7.4, containing 0.25 M sucrose) using a Potter–Elvehjem homogenizing system with a Teflon pestle. The microsomal fraction of rat spleen homogenate was obtained by centrifugation at 10,000× g for 20 min at 4 °C, followed by centrifugation of the supernatant at 100,000× g for 60 min at 4 °C. The 100,000g pellet (microsomes) was resuspended in an 100 mM potassium phosphate buffer, pH 7.8, containing 2 mM MgCl2 with a Potter–Elvehjem homogenizing system. The rat spleen microsomal fractions were divided into equal aliquots, placed into microcentrifuge tubes, and stored at −80 °C for up to 2 months.
Biliverdin reductase was obtained from liver cytosol. Rat liver was perfused through the hepatic portal vein with cold 0.9% NaCl, then it was cut and flushed with 2 × 20 mL of ice-cold PBS to remove all of the blood. Liver tissue was homogenized in 3 volumes of solution containing 1.15% KCl w/v and Tris buffer 20 mM, pH 7.8 on ice. Homogenates were centrifuged at 10,000× g, for 20 min at 4 °C. Supernatant was decanted and centrifuged at 100,000× g for 1 h at 4 °C to sediment the microsomes. The 100,000× g supernatant was saved and then stored in small amounts at −80 °C after its protein concentration was measured.
The HO-1 activities were determined by measuring the bilirubin formation using the difference in absorbance at 464–530 nm. Reaction mixtures (500 µL) contained 20 mM Tris–HCl, pH 7.4, (1 mg/mL) microsomal extract, 0.5–2 mg/mL biliverdin reductase, 1 mM NADPH, 2 mM glucose 6-phosphate (G6P), 1 U G6P dehydrogenase, 25 μM hemin, and 10 µL of DMSO (or the same volume of DMSO solution of test compounds to a final concentration of 100, 10, and 1 µM). Samples were incubated for 60 min at 37 °C in a circulating water bath in the dark. Reactions were stopped by adding the same volume of chloroform. After recovering the chloroform phase, the amount of bilirubin formed was measured with a double-beam spectrophotometer as OD464–530 nm (extinction coefficient, 40 mM/cm^−1 for bilirubin). […]

σ1R = target: T2, σ1R (Cavia porcellus, UniProt Q60492); test: σ1R radioligand binding assay, [3H](+)-pentazocine, guinea pig brain cortex membranes; settings: for inhibition at 10 µM: read-out: σ1R % of inhibition at 10 μM
T2 construct: The thawed membrane preparation of guinea pig brain cortex was incubated with increasing concentrations of test compounds; from tissue; host or cells: brain cortex membranes of male Dunkin-Hartley guinea pigs (animals from ENVIGO RMS S.R.L.)
T2 sequence (Q60492 whole entry): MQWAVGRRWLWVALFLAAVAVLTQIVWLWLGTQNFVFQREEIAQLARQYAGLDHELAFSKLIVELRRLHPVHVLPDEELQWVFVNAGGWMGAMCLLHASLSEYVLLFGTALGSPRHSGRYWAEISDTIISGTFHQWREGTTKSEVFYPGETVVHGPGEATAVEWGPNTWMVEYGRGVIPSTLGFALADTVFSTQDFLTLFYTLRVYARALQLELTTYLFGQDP
Method: (§1) All new synthesized HO-1/σ hybrids 1–4 were evaluated for affinity at both the σ1R and the σ2R, through radioligand binding assay.
(§2) Brain and liver homogenates for σ1R and σ2R binding assays were prepared from male Dunkin–Hartley guinea pigs and Sprague–Dawley rats, respectively, (ENVIGO RMS S.R.L., Udine, Italy) as previously reported [54]. In vitro σ1R ligand binding assays were carried out in Tris buffer (50 mM, pH 7.4) for 150 min at 37 °C. […] Bound and free radioligand were separated by fast filtration under reduced pressure using a Millipore filter apparatus through Whatman GF 6 glass fiber filters, which were presoaked in a 0.5% poly(ethyleneimine) water solution. Each filter paper was rinsed three times with ice-cold Tris buffer (50 mM, pH 7.4), dried at rt, and incubated overnight with scintillation fluid into pony vials. The bound radioactivity has been determined using a liquid scintillation counter (Beckman LS 6500) [55]. In vitro σ2R ligand binding assays were carried out in Tris buffer (50 mM, pH 8.0) for 120 min at rt. […] Bound and free radioligand were separated by fast filtration under reduced pressure using a Millipore filter apparatus through Whatman GF 6 glass fiber filters, which were presoaked in a 0.5% poly(ethyleneimine) water solution. Each filter paper was rinsed three times with ice-cold Tris buffer (10 mM, pH 8), dried at rt, and incubated overnight with scintillation fluid into pony vials. The bound radioactivity was determined using a liquid scintillation counter (Beckman LS 6500) [56]. The Ki-values were calculated with the program GraphPad Prism® 7.0 (GraphPad Software, San Diego, CA, USA). The Ki-values are given as mean value ± SD from at least two independent experiments performed in duplicate.

σ2R [1] = target: T3, σ2R (Rattus norvegicus, UniProt Q5U3Y7); test: σ2R radioligand binding assay, [3H]DTG, rat liver membranes
T3 construct: from tissue; host or cells: liver membranes of Sprague-Dawley rats (animals from ENVIGO RMS S.R.L.)
T3 sequence (Q5U3Y7 1-176): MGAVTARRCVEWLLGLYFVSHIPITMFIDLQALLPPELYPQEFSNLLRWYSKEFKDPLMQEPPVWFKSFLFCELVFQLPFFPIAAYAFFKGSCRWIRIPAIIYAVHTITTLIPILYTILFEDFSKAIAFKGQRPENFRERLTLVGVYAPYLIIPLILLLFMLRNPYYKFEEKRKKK
Method: as §1, §2

U87MG cells = test: MTT cell viability assay, U87MG cells; type: cell-based, human; settings: for effect on U87MG cell viability (in words): U87MG, 1, 10 and 50 μM; for effect of co-administration on U87MG cell viability (in words): 10 μM σR ligand plus 10 μM HO-1 inhibitor, compared with σR ligand alone
Method: In particular, we used the human glioblastoma cell line U87MG (ATCCC number #HTB-14) and the prostate cancer cell line DU145 (ATCC HTB-81). These cell lines were obtained from the American Type Culture Collection (ATCC, Rockville, Md., USA). Cells were cultured in Dulbecco’s modified Eagle’s medium (DMEM) supplemented with 10% of heat-inactivated fetal bovine serum (FBS), 100 U/mL penicillin and 100-μg/mL streptomycin (Sigma-Aldrich, Steinheim, Germany) and incubated at 37 °C in a humidified atmosphere with 5% CO2.
The cytotoxicity of HO-1 inhibitors and σR ligands previous synthesized compounds as well as novel HO-1/σR hybrids compounds were evaluated. The effect on cell viability was assessed by performing MTT assay. Cells were seeded into 96-well plates at a density of 7.0 × 10^3 cells/well in 100 µL of culture medium. The day after, cells were treated with each molecule at three different concentrations (1 µM, 10 µM and 50 µM) for 72 h. Following treatments, 0.5 mg/mL of 3-[4,5-dimethylthiazol-2-yl]-2,5-diphenyltetrazolium bromide (MTT) (Sigma-Aldrich) was added to each well and incubated for 4 h at 37 °C. Finally, dimethyl-sulfoxide (DMSO) was used to dissolve formazan salts and absorbance was measured at 450 nm in a microplate reader (Biotek Synergy-HT). Six replicate wells were used for each group.

DU145 cells = test: MTT cell viability assay, DU145 cells; type: cell-based, human; settings: DU145, single compound 10 μM, 72 h
Description: In some types of human prostate and brain cancers, both HO-1 and σRs are overexpressed, influencing cancer cell proliferation. Consequently, σR ligands and HO-1 inhibitors may have anticancer activity. Literature data highlight the potential antiproliferative activity of various σ1R ligands in highly diffusive glioblastoma and prostate cancer cells, likely by interfering with the progression of cell cycle and decreasing the migration of cancer cells. Likewise, HO-1 inhibition hinders cancer progression, mainly by decreasing CO-mediated angiogenesis and disrupting the antioxidant HO-1 activity. […] Cytotoxicity of all new and previous synthesized compounds were evaluated in vitro via MTT assay. The cell viability of DU145 and U87-MG cells was assessed after 72 h of continuous treatment with all tested compounds, at the concentrations of 1, 10, and 50 μM. […]
The cytotoxicity of HO-1 inhibitors and σR ligands previous synthesized compounds as well as novel HO-1/σR hybrids compounds were evaluated. The effect on cell viability was assessed by performing MTT assay. […] Finally, dimethyl-sulfoxide (DMSO) was used to dissolve formazan salts and absorbance was measured at 450 nm in a microplate reader (Biotek Synergy-HT). […]

HO-2 = test system: HO-2; design: method as in PMID 29783634, PMID 23867390, PMID 32056044, PMID 32168943, PMID 32222619; settings: Figure 1, previously demonstrated; cited from earlier work
σ2R [2] = target: T3, σ2R; settings: Table S1; ref [4, 5] of the supplement; cited from earlier work

SMILES | IC50 (HO-1) | Ki (σ1R) | inhibition at 10 µM (σ1R) | Ki (σ2R [1]) | inhibition at 10 µM (σ2R [1]) | effect on U87MG cell viability (in words) (U87MG cells; 72 h, MTT) | IC50 (HO-2) | also measured
O=C(c1ccc(OCCCCn2ccnc2)cc1)N1CCN(Cc2ccccc2)CC1 [Compound 1, (4-(4-(1H-imidazol-1-yl)butoxy)phenyl)(4-benzylpiperazin-1-yl)methanone] | 230 ± 5.1 µM | > 10 µM | 90% | > 10 µM | 54% | reduced U87MG cell viability at all concentrations, especially at 50 μM | – | –
O=C(Cc1ccc(OCCCCn2ccnc2)cc1)N1CCN(Cc2ccccc2)CC1 [Compound 2, 2-(4-(4-(1H-imidazol-1-yl)butoxy)phenyl)-1-(4-benzylpiperazin-1-yl)ethan-1-one] | 216 ± 3.6 µM | > 10 µM | 73% | > 10 µM | 67% | reduced U87MG cell viability at all concentrations, especially at 50 μM | – | –
O=C(CCc1ccc(OCCCCn2ccnc2)cc1)N1CCN(Cc2ccccc2)CC1 [Compound 3, 3-(4-(4-(1H-imidazol-1-yl)butoxy)phenyl)-1-(4-benzylpiperazin-1-yl)propan-1-one] | 162 ± 1.8 µM | > 10 µM | 78% | > 10 µM | 66% | less efficacy than the control at 1 μM | – | –
O=C(CCCc1ccc(OCCCCn2ccnc2)cc1)N1CCN(Cc2ccccc2)CC1 [Compound 4, 4-(4-(4-(1H-imidazol-1-yl)butoxy)phenyl)-1-(4-benzylpiperazin-1-yl)butan-1-one] | 87.7 ± 1.3 µM | > 10 µM | 55% | 4.62 µM | – | reduced U87MG cell viability at all concentrations, especially at 50 μM | – | IC50 HO-1 (HO-1): the most potent compound among the series
O=C(CCCN1CCC(O)(c2ccc(Cl)cc2)CC1)c1ccc(F)cc1 [Haloperidol, haloperidol] | – | – | – | – | – | high efficacy in downregulation of cell viability | – | reduction of cell viability (DU145 cells): about 50%
OC(Cn1ccnc1)c1cccc(-c2ccccc2)c1 (stereo not shown) [LS4/28] | – | – | – | – | – | did not affect U87MG cell viability | > 100 µM | –
OC(Cn1ccnc1)c1ccc(CCc2ccc(Br)cc2)cc1 (stereo not shown) [LS6/42] | – | – | – | – | – | – | > 100 µM | reduction of cellular viability (U87MG cells; U87MG, single compound 10 μM, 72 h, MTT): about 50%
Brc1cccc(OCCCCn2ccnc2)c1 [LS/0] | – | – | – | – | – | significantly reduce cell viability only at 50 μM | 2.2 ± 0.2 µM | –
COc1ccc(CN2CCN(C(=O)CCc3ccccc3)CC2)cc1 [RFB/13] | – | – | – | – | – | significantly reduce cell viability only at 50 μM | – | effect of co-administration on U87MG cell viability (in words) (U87MG cells; U87MG): significantly reduced for compound RFB/13 only when combined with LS4/28 or LS6/42
COc1ccc(CN2CCN(C(=O)CCC3CCCCC3)CC2)cc1 [SI1/13] | – | – | – | – | – | high efficacy in downregulation of cell viability | – | effect of co-administration on U87MG cell viability (in words) (U87MG cells; U87MG): increased by the addition of all the tested HO-1 inhibitors; Ki (σ2R [2]): 1.42 µM
